{
  "source": "patent US7960416B2",
  "about": "“Stable emulsion composition” (Takeda Pharmaceutical Company Limited, priority 2001, dated 2011)",
  "data": [
    {"tested_on": "NO production", "assay": "NO production-inhibiting effect in RAW264.7 cells (nitrite ion, DAN fluorescence)", "assay_type": "cell-based, Mouse", "settings": "Mus musculus; RAW264.7 cells stimulated with LPS 5 ng/ml and interferon gamma 1 U/ml; nitrite ion in culture supernatant; Compounds 1 and 3: minimum and maximum of 7 and 9 tests; read-out: IC50 (μM), NO production inhibition", "description": "(§1) Mouse macrophage cell line RAW264.7 was used as an iNOS-inducible cell and a test compound was examined for its % inhibition of NO production. The test compound was dissolved at 10 mM in N,N-dimethylformamide and diluted with an RPMI-1640 medium at the concentration of 0.1 mM. The concentration was further adjusted using the medium so that a final concentration ranging from 10 μM to 10 nM could be obtained by a 10-fold serial dilution and the test compound was added to a culture medium. On the day before the experiment, the cell was adjusted at 5×10^5/ml in an RPMI-1640 medium supplemented with 10% inactivated fetal calf serum and inoculated to a 96-well microplate at 1×10^5 cells/0.2 ml per well. After incubating at 37° C. under an atmosphere of 5% CO2/95% air overnight, the test compound adjusted as described above was added and then LPS and interferon gamma were added at the final concentrations of 5 ng/ml and 1 U/ml, respectively. After further incubating overnight, culture supernatants were examined for the concentration of nitrite ion (stable metabolite of NO) which was used as an index for the NO production. The nitrite ion concentration was determined by adding 25 μl of 20 μg/ml of 2,3-diaminonaphthalene (DAN) to 50 μl of the culture supernatant, followed by incubating at room temperature for 10 minutes, followed by adding 25 μl of 0.5 N NaOH, followed by determining a fluorescence at 450 nm (excitation wavelength: 365 nm). An IC50 represents the concentration of the test compound which inhibits 50% of the NO production.", "units": {"IC50": "µM"}, "values": [
      {"molecule": "CCOC(=O)C1=CCCCC1S(=O)(=O)Nc1ccc(Cl)cc1", "note": "(stereo not drawn) [Compound 30, ethyl 6-[N-(4-chlorophenyl)sulfamoyl]-1-cyclohexene-1-carboxylate]", "IC50": 0.54},
      {"molecule": "CCOC(=O)C1=CCCCC1S(=O)(=O)Nc1cccc(Cl)c1", "note": "(stereo not drawn) [Compound 37, ethyl 6-[N-(3-chlorophenyl)sulfamoyl]-1-cyclohexene-1-carboxylate]", "IC50": 0.13},
      {"molecule": "CCOC(=O)C1=CCCCC1S(=O)(=O)Nc1ccc([N+](=O)[O-])cc1", "note": "(stereo not drawn) [Compound 5, ethyl 6-[N-(4-nitrophenyl)sulfamoyl]-1-cyclohexene-1-carboxylate]", "IC50": 3.7},
      {"molecule": "CCOC(=O)C1=CCCCC1S(=O)(=O)Nc1ccccc1CC", "note": "(stereo not drawn) [Compound 39, ethyl 6-[N-(2-ethylphenyl)sulfamoyl]-1-cyclohexene-1-carboxylate]", "IC50": 0.32}
    ]},
    {"tested_on": "NO production", "assay": "NO production-inhibiting effect in RAW264.7 cells (nitrite ion, DAN fluorescence)", "assay_type": "cell-based, Mouse", "settings": "RAW264.7 cells stimulated with LPS 5 ng/ml and interferon gamma 1 U/ml; nitrite ion in culture supernatant; Compounds 1 and 3: minimum and maximum of 7 and 9 tests; read-out: IC50 (μM), NO production inhibition", "description": "as §1", "units": {"IC50": "µM"}, "values": [
      {"molecule": "CCOC(=O)C1=CCCCC1S(=O)(=O)Nc1ccc(F)cc1F", "note": "(stereo not drawn) [Compound 20, d-ethyl 6-[N-(2,4-difluorophenyl)sulfamoyl]-1-cyclohexene-1-carboxylate]", "IC50": 0.005},
      {"molecule": "ethyl 7-[N-(2-chloro-4-fluorophenyl)sulfamoyl]-1-dycloheptene-1-carboxylate [Compound 65]", "IC50": 0.32}
    ]}
  ]
}
